#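 Assay format: 96-well plates, 48-hour exposure. GI50: concentration for 50% inhibition of growth. TGI: concentration producing complete growth inhibition.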
# Columns and labels:
# Experiment in all cases: growth of human tumour cells (NCI), 48 h
# SK-OV-3 ovarian = tested on: SK-OV-3 ovarian
# NCI/ADR-RES ovarian = tested on: NCI/ADR-RES ovarian
# CCRF-CEM leukemia = tested on: CCRF-CEM leukemia
# SF-295 CNS = tested on: SF-295 CNS
# HOP-92 NSCLC = tested on: HOP-92 NSCLC
# PC-3 prostate = tested on: PC-3 prostate
# MCF7 breast = tested on: MCF7 breast
# CAKI-1 renal = tested on: CAKI-1 renal
# KM12 colon = tested on: KM12 colon
# OVCAR-3 ovarian = tested on: OVCAR-3 ovarian
# UO-31 renal = tested on: UO-31 renal
# OVCAR-8 ovarian = tested on: OVCAR-8 ovarian
# RXF 393 renal = tested on: RXF 393 renal
# OVCAR-4 ovarian = tested on: OVCAR-4 ovarian
# SN12C renal = tested on: SN12C renal
# M14 melanoma = tested on: M14 melanoma
# SR leukemia = tested on: SR leukemia
# HCT-15 colon = tested on: HCT-15 colon
# NCI-H522 lung = tested on: NCI-H522 lung
# LOX IMVI melanoma = tested on: LOX IMVI melanoma
# HL-60(TB) leukemia = tested on: HL-60(TB) leukemia
# BT-549 breast = tested on: BT-549 breast
# SW-620 colon = tested on: SW-620 colon
# K-562 leukemia = tested on: K-562 leukemia
# SK-MEL-2 melanoma = tested on: SK-MEL-2 melanoma
# NCI-H226 lung = tested on: NCI-H226 lung
# HOP-62 NSCLC = tested on: HOP-62 NSCLC
# MDA-MB-231 breast = tested on: MDA-MB-231 breast
# IGROV1 ovarian = tested on: IGROV1 ovarian
# COLO 205 colon = tested on: COLO 205 colon
# HT29 colon = tested on: HT29 colon
# HS 578T breast = tested on: HS 578T breast
# OVCAR-5 ovarian = tested on: OVCAR-5 ovarian
# ACHN renal = tested on: ACHN renal
# MOLT-4 leukemia = tested on: MOLT-4 leukemia
# UACC-257 melanoma = tested on: UACC-257 melanoma
# U251 CNS = tested on: U251 CNS
# MDA-MB-435 = tested on: MDA-MB-435
# SF-268 CNS = tested on: SF-268 CNS
# SK-MEL-28 melanoma = tested on: SK-MEL-28 melanoma
# SNB-19 CNS = tested on: SNB-19 CNS
# HCC-2998 colon = tested on: HCC-2998 colon
# SF-539 CNS = tested on: SF-539 CNS
# 786-0 renal = tested on: 786-0 renal
# UACC-62 melanoma = tested on: UACC-62 melanoma
# SK-MEL-5 melanoma = tested on: SK-MEL-5 melanoma
# HCT-116 colon = tested on: HCT-116 colon
# EKVX NSCLC = tested on: EKVX NSCLC
# NCI-H23 lung = tested on: NCI-H23 lung
# SNB-75 CNS = tested on: SNB-75 CNS
# A549 NSCLC = tested on: A549 NSCLC
# RPMI-8226 leukemia = tested on: RPMI-8226 leukemia
# A498 renal = tested on: A498 renal
# NCI-H460 lung = tested on: NCI-H460 lung
# DU-145 prostate = tested on: DU-145 prostate
# TK-10 renal = tested on: TK-10 renal
smiles,measurement,setting,value
CCN1C(=O)N(CC)C2SC(N/N=C/c3ccccc3)=NC21 (centres undefined),GI50,SK-OV-3 ovarian,614 nM
same,TGI,SK-OV-3 ovarian,> 100000 nM
same,GI50,NCI/ADR-RES ovarian,327 nM
same,TGI,NCI/ADR-RES ovarian,> 36100 nM
same,GI50,CCRF-CEM leukemia,342 nM
same,TGI,CCRF-CEM leukemia,> 100000 nM
same,GI50,SF-295 CNS,282 nM
same,TGI,SF-295 CNS,> 71600 nM
same,GI50,HOP-92 NSCLC,2780 nM
same,TGI,HOP-92 NSCLC,> 30300 nM
same,GI50,PC-3 prostate,359 nM
same,TGI,PC-3 prostate,> 100000 nM
same,GI50,MCF7 breast,301 nM
same,TGI,MCF7 breast,> 100000 nM
same,GI50,CAKI-1 renal,403 nM
same,TGI,CAKI-1 renal,> 100000 nM
same,GI50,KM12 colon,148 nM
same,TGI,KM12 colon,> 100000 nM
same,GI50,OVCAR-3 ovarian,395 nM
same,TGI,OVCAR-3 ovarian,> 100000 nM
same,GI50,UO-31 renal,718 nM
same,TGI,UO-31 renal,> 100000 nM
same,GI50,OVCAR-8 ovarian,473 nM
same,TGI,OVCAR-8 ovarian,> 100000 nM
same,GI50,RXF 393 renal,171 nM
same,TGI,RXF 393 renal,503 nM
same,GI50,OVCAR-4 ovarian,> 88900 nM
same,TGI,OVCAR-4 ovarian,> 100000 nM
same,GI50,SN12C renal,557 nM
same,TGI,SN12C renal,> 100000 nM
same,GI50,M14 melanoma,234 nM
same,TGI,M14 melanoma,4670 nM
same,GI50,SR leukemia,194 nM
same,TGI,SR leukemia,> 100000 nM
same,GI50,HCT-15 colon,349 nM
same,TGI,HCT-15 colon,> 100000 nM
same,GI50,NCI-H522 lung,210 nM
same,TGI,NCI-H522 lung,735 nM
same,GI50,LOX IMVI melanoma,572 nM
same,TGI,LOX IMVI melanoma,> 100000 nM
same,GI50,HL-60(TB) leukemia,257 nM
same,TGI,HL-60(TB) leukemia,932 nM
same,GI50,BT-549 breast,464 nM
same,TGI,BT-549 breast,2300 nM
same,GI50,SW-620 colon,394 nM
same,TGI,SW-620 colon,> 100000 nM
same,GI50,K-562 leukemia,215 nM
same,TGI,K-562 leukemia,> 100000 nM
same,GI50,SK-MEL-2 melanoma,317 nM
same,TGI,SK-MEL-2 melanoma,> 100000 nM
same,GI50,NCI-H226 lung,754 nM
same,TGI,NCI-H226 lung,> 100000 nM
same,GI50,HOP-62 NSCLC,567 nM
same,TGI,HOP-62 NSCLC,> 100000 nM
same,GI50,MDA-MB-231 breast,656 nM
same,TGI,MDA-MB-231 breast,> 100000 nM
same,GI50,IGROV1 ovarian,622 nM
same,TGI,IGROV1 ovarian,> 100000 nM
same,GI50,COLO 205 colon,300 nM
same,TGI,COLO 205 colon,945 nM
same,GI50,HT29 colon,320 nM
same,TGI,HT29 colon,> 100000 nM
same,GI50,HS 578T breast,312 nM
same,TGI,HS 578T breast,> 100000 nM
same,GI50,OVCAR-5 ovarian,521 nM
same,TGI,OVCAR-5 ovarian,> 100000 nM
same,GI50,ACHN renal,943 nM
same,TGI,ACHN renal,> 100000 nM
same,GI50,MOLT-4 leukemia,502 nM
same,TGI,MOLT-4 leukemia,> 100000 nM
same,TGI,UACC-257 melanoma,> 100000 nM
same,GI50,U251 CNS,343 nM
same,TGI,U251 CNS,> 100000 nM
same,GI50,MDA-MB-435,84.8 nM
same,TGI,MDA-MB-435,317 nM
same,GI50,SF-268 CNS,3410 nM
same,TGI,SF-268 CNS,> 100000 nM
same,GI50,SK-MEL-28 melanoma,1680 nM
same,TGI,SK-MEL-28 melanoma,> 100000 nM
same,GI50,SNB-19 CNS,468 nM
same,TGI,SNB-19 CNS,> 100000 nM
same,GI50,HCC-2998 colon,564 nM
same,TGI,HCC-2998 colon,34000 nM
same,GI50,SF-539 CNS,232 nM
same,TGI,SF-539 CNS,683 nM
same,GI50,786-0 renal,583 nM
same,TGI,786-0 renal,44500 nM
same,GI50,UACC-62 melanoma,390 nM
same,TGI,UACC-62 melanoma,> 100000 nM
same,GI50,SK-MEL-5 melanoma,614 nM
same,TGI,SK-MEL-5 melanoma,22700 nM
same,GI50,HCT-116 colon,371 nM
same,TGI,HCT-116 colon,19800 nM
same,GI50,EKVX NSCLC,583 nM
same,TGI,EKVX NSCLC,> 100000 nM
same,GI50,NCI-H23 lung,474 nM
same,TGI,NCI-H23 lung,> 100000 nM
same,GI50,SNB-75 CNS,173 nM
same,GI50,A549 NSCLC,606 nM
same,TGI,A549 NSCLC,> 100000 nM
same,GI50,RPMI-8226 leukemia,381 nM
same,TGI,RPMI-8226 leukemia,> 100000 nM
same,GI50,A498 renal,227 nM
same,TGI,A498 renal,785 nM
same,GI50,NCI-H460 lung,367 nM
same,TGI,NCI-H460 lung,> 34200 nM
same,GI50,DU-145 prostate,441 nM
same,TGI,DU-145 prostate,> 100000 nM
same,TGI,TK-10 renal,> 100000 nM
